Experimental findings from article PMC3213642 (The Biochemical journal, 2011) are described below.

One data set addresses FlaI (Sulfolobus acidocaldarius, UniProt Q4J9L0, E336A). The experiment in a line: size-exclusion chromatography and SAXS, hexamerization. The data set is classed as binding. The conditions noted are these: SAXS: pH 7.0, 200 mM NaCl, 1 mM ATP, 2.5 mM MgCl2, 20 °C. (In general: SEC sorts molecules by how far they enter the pores of the column.)
The data set “SAXS” concerns the molecule itself. The experiment in a line: SAXS.

On to `Nc1ncnc2c1ncn2[C@@H]1O[C@H](COP(=O)(O)OP(=O)(O)OP(=O)(O)O)[C@@H](O)[C@H]1O` [ATP], for which the “size-exclusion chromatography and SAXS, hexamerization” value at FlaI is reported as “FlaI^E336A with ATP clearly forms a hexameric ring similar to the one determined for GspE”.

B1: N-terminal His-tagged FlaI^E336A (Walker B mutant) (enzyme, S. acidocaldarius DSM639, UniProt Q4J9L0 1-513, looked up)
chain: MSFVEDYLTKLQERPTIIENPNILKGSKIFNAIYRVDDFVYIHIQSIKSEDGYNQYNVIEPPRPTHDEMEEIEEKFALSIGDKEPPEDTKEKEKLIRSILDKILLRMRLSVPKEYVIYHFIRDKLYTGSLEPLIRDPYIEDISIPGLGHVYIVHKVFGPMRTSIKFENYEELDNLIVSLSEKSYRPVSHNRPVVDASLPDGSRVNFVYGVDISRRGSNLTVRKFSRVPTSITQLIMFGTLSSMMAAYIWTMLDEGMNLFVCGETASGKTTTLNAITAFIPPNLKIVTIEDTPELTVPHSNWVAEVTRETGGEGTIKLFDLLKAALRQRPNYILVGAIRDKEGNVAFQAMQTGHSVMATFHAANITTLIQRLTGYPIEVPKSYINNLNIALFQTALYDKKGNLIRRVVEVDEIIDIDPVTNDVVYIPAFTYDSVQDKMLFAGKGSSYLIENKIAVKRGIDRRNIGLLYDELQMRSRFLNLLVEKKIFNYYDVWDYILRARQMGLEEAIKYVSNI
In general, stoichiometry N refers to a count of units in the complex or per binding partner. Regarding B1, in the data set “SAXS”, the “stoichiometry N” value was 6.
